Measurements taken from ChEMBL document CHEMBL1152068, “A study of 3-amino-N-hydroxypropanesulfonamide derivatives as potential GABAB agonists and their fragmentation to 3-aminopropanesulfinic acid” (Bioorg Med Chem Lett, 1996).
pIC50: −log10 of the molar value.

What was measured:
GABA B receptor = GABA B receptor (Rattus norvegicus, UniProt O88871+Q9Z0U4); assay: Binding affinity against Gamma-aminobutyric acid type B receptor in rat brain synaptosomes after 30 minutes; type: subcellular
[1] = molecular target: GABA-A receptor; anion channel; assay: Binding affinity against Gamma-aminobutyric acid A receptor in rat brain synaptosomes after 30 minutes; type: subcellular
Cavia porcellus [2] = species: Cavia porcellus; assay: Compound was tested for its effect on EFS stimulated neuronal cholinergic contractions of guinea pig tracheal rings after 10 minutes; type: functional; conditions: Trachea
Cavia porcellus [3] = assay: Inhibitory effect on bronchospasm caused by vagal nerve stimulation (EFS) in anesthetized, mechanically ventilated guinea-pigs at 3 mg/kg after 10 minutes; type: functional; conditions: Bronchiole
[4] = system: GABA-A receptor; anion channel; assay: Binding affinity against Gamma-aminobutyric acid A receptor in rat brain synaptosomes after 30 minutes (inactive); type: subcellular

GABA B receptor, sequence (Q9Z0U4 whole entry): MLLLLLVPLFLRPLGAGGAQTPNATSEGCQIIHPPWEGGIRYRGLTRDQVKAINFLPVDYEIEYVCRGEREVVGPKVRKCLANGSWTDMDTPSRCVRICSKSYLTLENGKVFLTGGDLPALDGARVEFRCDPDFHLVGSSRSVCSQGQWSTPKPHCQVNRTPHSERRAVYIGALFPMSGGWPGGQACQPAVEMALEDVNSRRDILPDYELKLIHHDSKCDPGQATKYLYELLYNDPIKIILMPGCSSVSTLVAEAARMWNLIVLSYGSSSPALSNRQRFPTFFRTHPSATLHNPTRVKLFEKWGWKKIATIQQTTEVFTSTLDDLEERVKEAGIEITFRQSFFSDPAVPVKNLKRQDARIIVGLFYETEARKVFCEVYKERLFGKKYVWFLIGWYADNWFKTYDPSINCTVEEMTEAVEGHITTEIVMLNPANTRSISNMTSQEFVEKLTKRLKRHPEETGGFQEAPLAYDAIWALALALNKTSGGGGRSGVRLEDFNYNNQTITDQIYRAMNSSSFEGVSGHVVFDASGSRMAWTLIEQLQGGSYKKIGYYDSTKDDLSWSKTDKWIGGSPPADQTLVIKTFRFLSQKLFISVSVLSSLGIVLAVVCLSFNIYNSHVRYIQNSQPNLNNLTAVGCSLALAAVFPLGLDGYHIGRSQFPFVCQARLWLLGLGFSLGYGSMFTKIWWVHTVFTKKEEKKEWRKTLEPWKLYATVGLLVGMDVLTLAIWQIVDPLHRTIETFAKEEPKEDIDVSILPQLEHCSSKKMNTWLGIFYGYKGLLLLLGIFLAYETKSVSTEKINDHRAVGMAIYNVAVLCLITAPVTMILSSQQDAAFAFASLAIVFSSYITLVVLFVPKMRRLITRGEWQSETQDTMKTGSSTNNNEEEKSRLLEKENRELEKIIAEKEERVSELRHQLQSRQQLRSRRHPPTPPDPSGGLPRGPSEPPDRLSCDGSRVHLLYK
GABA B receptor, sequence (O88871 whole entry): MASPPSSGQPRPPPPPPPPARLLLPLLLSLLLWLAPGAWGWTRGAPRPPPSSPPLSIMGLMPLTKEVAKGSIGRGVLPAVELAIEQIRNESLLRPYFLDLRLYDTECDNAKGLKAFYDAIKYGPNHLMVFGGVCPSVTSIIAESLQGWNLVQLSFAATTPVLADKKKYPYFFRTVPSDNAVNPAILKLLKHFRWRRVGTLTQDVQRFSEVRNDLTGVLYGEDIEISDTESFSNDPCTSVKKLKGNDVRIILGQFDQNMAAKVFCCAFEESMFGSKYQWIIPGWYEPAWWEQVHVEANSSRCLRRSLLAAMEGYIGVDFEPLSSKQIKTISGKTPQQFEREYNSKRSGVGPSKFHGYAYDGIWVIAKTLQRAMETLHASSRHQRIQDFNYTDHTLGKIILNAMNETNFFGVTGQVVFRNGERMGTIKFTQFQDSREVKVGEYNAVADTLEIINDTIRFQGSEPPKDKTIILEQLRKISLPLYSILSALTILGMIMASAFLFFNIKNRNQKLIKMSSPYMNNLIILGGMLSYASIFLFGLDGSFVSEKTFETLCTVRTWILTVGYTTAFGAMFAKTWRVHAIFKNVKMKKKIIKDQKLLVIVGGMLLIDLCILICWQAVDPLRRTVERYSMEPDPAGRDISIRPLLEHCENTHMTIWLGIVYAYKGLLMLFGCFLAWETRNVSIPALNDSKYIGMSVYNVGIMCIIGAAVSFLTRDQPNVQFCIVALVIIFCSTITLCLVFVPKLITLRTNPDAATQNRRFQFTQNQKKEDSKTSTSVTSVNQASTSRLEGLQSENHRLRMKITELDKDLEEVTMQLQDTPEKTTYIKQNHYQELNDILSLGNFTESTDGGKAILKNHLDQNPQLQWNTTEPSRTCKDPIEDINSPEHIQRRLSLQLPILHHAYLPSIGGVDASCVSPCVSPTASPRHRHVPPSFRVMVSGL

Structure (SMILES): NCCCS(=O)(=O)N(O)CC(=O)O
- pIC50 (GABA B receptor): 7.10
- pIC50 [1]: 6.21

Structure (SMILES): NCCCS(=O)(=O)NO
- pIC50 (GABA B receptor): 6.55
- pIC50 (Cavia porcellus [2]): 4.80
- inhibition in vivo at 3 mg/kg (Cavia porcellus [3]): 0%
- pIC50 [1]: 5.70

Structure (SMILES): NCCCS(=O)(=O)N(O)Cc1ccccc1
- pIC50 (GABA B receptor): 7.40
- pIC50 (Cavia porcellus [2]): 5.38
- inhibition in vivo at 3 mg/kg (Cavia porcellus [3]): 17%
- pIC50 [1]: 6.64

Structure (SMILES): CN(O)S(=O)(=O)CCCN
- pIC50 (GABA B receptor): 7.40
- pIC50 (Cavia porcellus [2]): 5.59
- inhibition in vivo at 3 mg/kg (Cavia porcellus [3]): 17%
- pIC50 [1]: 6.55

Structure (SMILES): NCC(CC(=O)O)c1ccc(Cl)cc1 (racemic) [BACLOFEN]
- IC50 [4]: Not Active
- pIC50 (Cavia porcellus [2]): 5.19
- inhibition in vivo at 3 mg/kg (Cavia porcellus [3]): 75%

Structure (SMILES): NCCCS(=O)O [HOMOHYPOTAURINE]
- pIC50 (GABA B receptor): 7.22
- pIC50 (Cavia porcellus [2]): 5.77
- inhibition in vivo at 3 mg/kg (Cavia porcellus [3]): 25%
- pIC50 [1]: 6.33

Structure (SMILES): NCCCS(=O)(=O)O [TRAMIPROSATE]
- pIC50 (GABA B receptor): 4.52
- pIC50 [1]: 6.52
